# Measured values from US20130053350A1, “PPAR-SPARING THIAZOLIDINEDIONES AND COMBINATIONS FOR THE TREATMENT OF NEURODEGENERATIVE DISEASES” (Metabolic Solutions Development Company, LLC, priority 2009, published 2013).
# Experiments:
# PGC-1α = experiment: Synergy with norepinephrine on expression of PGC-1α mRNA in precursor BAT cells (quantitative PCR); assay type: cell-based; details: 3 μM compound for seven days, then 1 μM norepinephrine for 2 hours, vs control without compound
# Method: Another example of the ability of augmented signaling between cyclic nucleotides and compounds of Formula I is shown by the effect on expression of PGC-1α, a known regulator of mitochondrial biogenesis. Increased numbers of mitochondria are predictive of utility for the reduction of body weight.
# Precursor BAT cells were isolated as described above and treated with or without 3 μM compounds: 1.] Compound X: 5-(4-(2-(5-ethylpyridin-2-yl)-2-oxoethoxy)benzyl)-1,3-thiazolidine-2,4-dione; 2.] Compound Y: 5-(4-(2R)-2-(5-ethylpyridin-2-yl)-2-hydroxyethoxyy)benzyl)-1,3-thiazolidine-2,4-dione; or 3.] Compound Z: 5-(4-(2-(3-methoxyphenyl)-2-oxoethoxy)benzyl)-1,3-thiazolidine-2,4-dione for seven days followed by treatment with 1 μM norepinephrine for 2 hours. Total RNA was isolated from the cells and the RNA message (mRNA) for PGC-1α was measured by quantitative polymerase chain reactions.
# astrocyte marker GFAP = experiment: GFAP astrocyte marker staining of sections from treated mice; assay type: in vivo; details: sections from control and treated mice
# Method: (§1) 5XFAD mice harbor 5 familial mutations (3 in the amyloid precursor protein; 2 in presenilin 1) and develop robust plaque pathology as early as 6 weeks. These mice were treated beginning at 2 months of age for a period of 4 weeks with control chow or chow containing Compound X to deliver 390 mg/kg for 4 weeks.
# 5XFAD mice = experiment: Thioflavin S stained plaques in the hippocampus of 5XFAD mice; assay type: in vivo
# Method: as §1
# Referring to FIG. 7, thioflavin S stained plaques were counted in the hippocampus of the 5XFAD mice. […] Note that the plaques having less than 100 micron size were excluded from the graph, and those amounted to about 70% of all the plaques in both Control and Compound X treated groups.
# PPARγ = details: dosed to full effect for insulin sensitizing actions in vivo; cited from earlier work
# [1] = chow delivering 390 mg/kg for 4 weeks, hippocampus, vs control group
compound,measurement,setting,value
CCc1ccc([C@@H](O)COc2ccc(CC3SC(=O)NC3=O)cc2)nc1 (some centres unmarked) [Compound Y],PGC-1α message (mRNA) in the presence of norepinephrine,PGC-1α,increase
CCc1ccc(C(=O)COc2ccc(CC3SC(=O)NC3=O)cc2)nc1 (centres unmarked) [Mitoglitazone],"average number of GFAP positively stained cells per section, P value control vs treated",astrocyte marker GFAP,0.012
"CCc1ccc(C(=O)COc2ccc(CC3SC(=O)NC3=O)cc2)nc1 (centres unmarked) [Compound X, 5-(4-(2-(5-ethylpyridin-2-yl)-2-oxoethoxy)benzyl)-1,3-thiazolidine-2,4-dione]",PGC-1α message (mRNA) in the presence of norepinephrine,PGC-1α,increase
same,number of plaques,5XFAD mice; [1],less than the control group
same,size of plaques,5XFAD mice; [1],less than the control group
same,"plaques having less than 100 micron size, share of all the plaques","5XFAD mice; same in Control and treated groups, excluded from the graph",about 70%
"COc1cccc(C(=O)COc2ccc(CC3SC(=O)NC3=O)cc2)c1 (centres unmarked) [Compound Z, 5-(4-(2-(3-methoxyphenyl)-2-oxoethoxy)benzyl)-1,3-thiazolidine-2,4-dione]",PGC-1α message (mRNA) in the presence of norepinephrine,PGC-1α,increase
CN(CCOc1ccc(CC2SC(=O)NC2=O)cc1)c1ccccn1 (centres unmarked) [rosiglitazone],a P2 expression in the liver,PPARγ,increase
